Test results: patent US7063946B2, “Methods, reagents, kits and apparatus for protein function analysis” (Meso Scale Technologies, LLC., priority 2001, dated 2006)

Key:
BTK = target: T1, BTK (Homo sapiens, UniProt Q06187); assay: Kinase inhibitor profiling, pEY phosphorylation; format: biochemical
T1 construct: specificity data for proteins generated from a library of eighteen full-length clones; host or cells: rabbit reticulocyte lysate, TnT coupled in vitro transcription/translation (cell-free)
T1 sequence (Q06187 whole entry): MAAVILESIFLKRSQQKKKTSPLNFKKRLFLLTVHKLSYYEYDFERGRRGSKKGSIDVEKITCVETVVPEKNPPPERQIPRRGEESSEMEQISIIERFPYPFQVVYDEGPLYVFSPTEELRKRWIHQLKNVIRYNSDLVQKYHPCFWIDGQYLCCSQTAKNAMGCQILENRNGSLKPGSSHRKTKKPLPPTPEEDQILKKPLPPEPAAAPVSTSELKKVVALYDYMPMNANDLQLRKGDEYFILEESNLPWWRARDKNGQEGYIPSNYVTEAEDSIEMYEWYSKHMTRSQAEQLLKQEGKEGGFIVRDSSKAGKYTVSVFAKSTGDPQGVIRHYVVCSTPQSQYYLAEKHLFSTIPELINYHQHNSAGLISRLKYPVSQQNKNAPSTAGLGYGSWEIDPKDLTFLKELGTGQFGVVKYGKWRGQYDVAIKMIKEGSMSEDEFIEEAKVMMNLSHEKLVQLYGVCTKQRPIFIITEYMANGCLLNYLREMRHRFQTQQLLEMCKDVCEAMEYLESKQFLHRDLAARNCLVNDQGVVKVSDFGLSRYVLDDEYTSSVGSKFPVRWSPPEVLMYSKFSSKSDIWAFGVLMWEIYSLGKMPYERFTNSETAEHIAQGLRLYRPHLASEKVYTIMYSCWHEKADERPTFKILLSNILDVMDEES
Description: (§1) Proteins were produced in an in vitro transcription and translation reaction. […] The unbound components of the reaction containing endogenous kinases were removed by three washes with TT-buffer (25 mM Tris-HCl buffer pH 7.4 and 0.004% Triton), two five minutes washings with high-salt wash buffer (25 mM Tris-HCl buffer pH 7.4, 0.004% Triton, 1M NaCl and 5 mM DTT) and 3 more washes with TT-buffer. To these immobilized and purified proteins a tyrosine kinase substrate, 5 nM pEY (poly Glu-Tyr, Sigma, MO), was added in a 50 μl reaction solution containing 5 mM MgCl2, 5 mM MnCl2, 100 μM ATP, 25 mM Tris-HCl buffer pH 7.4, 0.05 mM Na3VO4, 0.004% TritonX-100, 2 mM DTT and EDTA-free protease inhibitor (Roche Molecular Biochemicals). This mixture was incubated with shaking at room temperature overnight to allow phosphorylation of the pEY substrate by the immobilized kinases. Following this incubation, 45 μl of this mixture was transferred to a streptavidin or avidin-coated NPT IPR plate coated with biotinylated anti-phosphotyrosine antibody (PY20, Zymed labs, CA) followed by incubation for 30 minutes at room temperature to allow the binding of the phosphorylated pEY substrate to the PY20 coated NPT plate. Following this binding step, 50 ng Sulfo-TAG labeled anti-phosphotyrosine in buffer containing 25 mM Tris-HCl buffer pH 7.4, 5 mM MgCl2, 0.05 mM Na3VO4, 0.004% TritonX-100, 2 mM DTT and 0.05% IgG was added followed by incubation at room temperature for 30 mm. The unbound reagents were removed by one time washing with water, and the TAG label was detected in presence of 150 μl IPR assay buffer (0.4 mM Gly-Gly buffer, pH 7.8, 1 mM EDTA, 0.1 M TPA). The ECL signals were measured using an imaging plate reader.
(§2) The unbound components of the translation reaction (including any endogenous kinases) were removed by 3 washes with TT-buffer (25 mM Tris-HCl buffer pH 7.4 and 0.004% Triton), two five minutes washes with high-salt wash buffer (25 mM Tris-HCl buffer pH 7.4, 0.004% Triton, 1M NaCl and 5 mM DTT) and 3 washes with TT-buffer. […] The mixture was incubated at room temperature for 10 mm before starting the kinase reaction by adding 25 μl of 200 μM ATP in buffer A. This mixture was incubated with intermittent shaking at room temperature for 2 hours to overnight to allow (a) phosphorylation of the pEY substrate and (b) autophosphorylation of the immobilized kinases. Autophosphorylation and phosphorylation of the pEY was measured as described in Examples 7 and 8.
(§3) The ECL signal in control wells produced by tyrosine kinases was compared to the wells containing inhibitor compounds.

[1] = tested on: tyrosine kinases reported to be the target of each inhibitor; conditions: read-out: reported IC50 concentration (1× concentration); for the kinase reported to be the target of the inhibitor; cited from earlier work
Kit = target: T2, Kit (Mus musculus, UniProt P05532); assay: Kinase inhibitor profiling, pEY phosphorylation; format: biochemical
T2 construct: specificity data for proteins generated from a library of eighteen full-length clones; biotin on random lysines (biotin-Lys-tRNA); host or cells: rabbit reticulocyte lysate, coupled transcription/translation (TnT, Promega)
T2 sequence (P05532 25-979): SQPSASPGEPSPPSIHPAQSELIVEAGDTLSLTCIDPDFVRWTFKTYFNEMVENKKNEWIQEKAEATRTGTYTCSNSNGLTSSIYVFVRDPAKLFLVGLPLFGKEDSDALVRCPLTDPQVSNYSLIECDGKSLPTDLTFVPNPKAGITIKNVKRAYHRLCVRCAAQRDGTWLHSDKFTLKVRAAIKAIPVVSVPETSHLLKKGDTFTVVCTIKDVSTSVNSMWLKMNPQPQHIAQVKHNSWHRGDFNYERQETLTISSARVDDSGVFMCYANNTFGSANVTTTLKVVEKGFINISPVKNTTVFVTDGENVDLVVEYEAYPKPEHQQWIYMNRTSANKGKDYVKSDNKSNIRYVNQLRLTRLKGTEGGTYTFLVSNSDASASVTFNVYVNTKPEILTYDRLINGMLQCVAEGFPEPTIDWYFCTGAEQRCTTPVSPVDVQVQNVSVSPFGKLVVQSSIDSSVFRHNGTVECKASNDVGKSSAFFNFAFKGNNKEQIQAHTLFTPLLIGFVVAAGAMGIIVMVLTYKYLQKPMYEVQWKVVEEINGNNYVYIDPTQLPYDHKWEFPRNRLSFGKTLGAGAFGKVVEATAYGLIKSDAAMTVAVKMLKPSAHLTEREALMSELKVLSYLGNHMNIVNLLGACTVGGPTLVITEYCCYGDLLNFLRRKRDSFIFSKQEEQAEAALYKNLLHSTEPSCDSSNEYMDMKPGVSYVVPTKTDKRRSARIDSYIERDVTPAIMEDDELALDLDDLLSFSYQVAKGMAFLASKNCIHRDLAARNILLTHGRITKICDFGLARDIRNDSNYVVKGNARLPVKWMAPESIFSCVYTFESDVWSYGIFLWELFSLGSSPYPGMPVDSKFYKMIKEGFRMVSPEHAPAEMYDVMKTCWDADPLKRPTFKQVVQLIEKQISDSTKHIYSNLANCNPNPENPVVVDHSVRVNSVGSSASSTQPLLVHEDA
Description: as §1
(§4) Proteins were produced using 100 ng of plasmid DNA Mock (Luciferase, Promega) or tyrosine kinases (Fert2 IMAGE ID # 4485050, FGFR1 IMAGE ID # 4037899, Fgfr2 IMAGE ID # 2654352, Src IMAGE ID # 3156400, BMX IMAGE ID # 3919253, LCK IMAGE ID # 4191610, Epha7 IMAGE ID # 3991628, Ephb4 IMAGE ID # 4013934, Tek IMAGE ID # 3482498, HCK IMAGE ID # 4778819, BTK IMAGE ID # 4478463, CSK IMAGE ID # 4398416, SYK IMAGE ID # 3870426, FGR IMAGE ID # 4419973, PTK2B IMAGE ID # 4339456, FRK(IMAGE ID # 4515877, Kit IMAGE ID # 2644960, Fgfr-4 IMAGE ID # 4239139, NTRK3 IMAGE ID # 4181574, Kdr IMAGE ID # 4238984, Incyte Genomics, CA) and immobilized on SA or avidin coated NPT-IPR plates as described in previous examples. The unbound components of the translation reaction (including any endogenous kinases) were removed by 3 washes with TT-buffer (25 mM Tris-HCl buffer pH 7.4 and 0.004% Triton), two five minutes washes with high-salt wash buffer (25 mM Tris-HCl buffer pH 7.4, 0.004% Triton, 1M NaCl and 5 mM DTT) and 3 washes with TT-buffer. […] The mixture was incubated at room temperature for 10 mm before starting the kinase reaction by adding 25 μl of 200 μM ATP in buffer A. This mixture was incubated with intermittent shaking at room temperature for 2 hours to overnight to allow (a) phosphorylation of the pEY substrate and (b) autophosphorylation of the immobilized kinases. Autophosphorylation and phosphorylation of the pEY was measured as described in Examples 7 and 8.
(§5) The ECL signal in control wells produced by tyrosine kinases was compared to the wells containing inhibitor compounds. The signal produced from Mock was negligible.

EphB4 = target: T3, EphB4 (Mus musculus, UniProt P54761); assay: Kinase inhibitor profiling, pEY phosphorylation; format: biochemical
T3 construct: specificity data for proteins generated from a library of eighteen full-length clones; host or cells: rabbit reticulocyte lysate, TnT coupled in vitro transcription/translation (cell-free)
T3 sequence (P54761 16-987): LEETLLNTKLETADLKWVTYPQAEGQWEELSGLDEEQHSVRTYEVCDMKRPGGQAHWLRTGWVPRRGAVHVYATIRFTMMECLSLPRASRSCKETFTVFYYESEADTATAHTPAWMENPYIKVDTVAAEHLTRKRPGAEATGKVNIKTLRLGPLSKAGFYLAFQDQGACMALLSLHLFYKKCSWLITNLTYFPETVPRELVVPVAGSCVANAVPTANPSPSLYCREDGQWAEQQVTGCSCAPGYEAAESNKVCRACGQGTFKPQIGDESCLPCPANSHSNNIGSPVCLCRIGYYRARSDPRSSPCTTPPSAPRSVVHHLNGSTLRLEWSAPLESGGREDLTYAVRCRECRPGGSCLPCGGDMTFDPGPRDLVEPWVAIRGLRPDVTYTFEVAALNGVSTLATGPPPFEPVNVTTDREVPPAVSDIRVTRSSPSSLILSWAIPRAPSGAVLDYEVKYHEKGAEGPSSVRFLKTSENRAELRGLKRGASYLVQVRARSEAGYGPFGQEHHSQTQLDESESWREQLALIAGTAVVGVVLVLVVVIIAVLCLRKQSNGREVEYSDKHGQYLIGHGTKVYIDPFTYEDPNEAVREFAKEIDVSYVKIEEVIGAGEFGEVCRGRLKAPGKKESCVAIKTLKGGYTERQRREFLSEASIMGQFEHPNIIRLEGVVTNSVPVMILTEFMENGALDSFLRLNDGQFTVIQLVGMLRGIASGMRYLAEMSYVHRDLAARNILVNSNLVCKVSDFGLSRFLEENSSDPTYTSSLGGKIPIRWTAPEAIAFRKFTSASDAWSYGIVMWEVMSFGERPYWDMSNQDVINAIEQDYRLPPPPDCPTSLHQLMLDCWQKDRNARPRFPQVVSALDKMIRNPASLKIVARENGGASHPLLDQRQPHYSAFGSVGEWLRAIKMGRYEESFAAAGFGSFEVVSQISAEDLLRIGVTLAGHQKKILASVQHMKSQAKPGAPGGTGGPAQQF
Description: as §1, §4, §5

Kdr = target: T4, Kdr (Mus musculus, UniProt P35918); assay: Kinase inhibitor profiling, pEY phosphorylation; format: biochemical
T4 construct: specificity data for proteins generated from a library of eighteen full-length clones; biotin on random lysines (biotin-Lys-tRNA); host or cells: rabbit reticulocyte lysate, coupled transcription/translation (TnT, Promega)
T4 sequence (P35918 20-1345): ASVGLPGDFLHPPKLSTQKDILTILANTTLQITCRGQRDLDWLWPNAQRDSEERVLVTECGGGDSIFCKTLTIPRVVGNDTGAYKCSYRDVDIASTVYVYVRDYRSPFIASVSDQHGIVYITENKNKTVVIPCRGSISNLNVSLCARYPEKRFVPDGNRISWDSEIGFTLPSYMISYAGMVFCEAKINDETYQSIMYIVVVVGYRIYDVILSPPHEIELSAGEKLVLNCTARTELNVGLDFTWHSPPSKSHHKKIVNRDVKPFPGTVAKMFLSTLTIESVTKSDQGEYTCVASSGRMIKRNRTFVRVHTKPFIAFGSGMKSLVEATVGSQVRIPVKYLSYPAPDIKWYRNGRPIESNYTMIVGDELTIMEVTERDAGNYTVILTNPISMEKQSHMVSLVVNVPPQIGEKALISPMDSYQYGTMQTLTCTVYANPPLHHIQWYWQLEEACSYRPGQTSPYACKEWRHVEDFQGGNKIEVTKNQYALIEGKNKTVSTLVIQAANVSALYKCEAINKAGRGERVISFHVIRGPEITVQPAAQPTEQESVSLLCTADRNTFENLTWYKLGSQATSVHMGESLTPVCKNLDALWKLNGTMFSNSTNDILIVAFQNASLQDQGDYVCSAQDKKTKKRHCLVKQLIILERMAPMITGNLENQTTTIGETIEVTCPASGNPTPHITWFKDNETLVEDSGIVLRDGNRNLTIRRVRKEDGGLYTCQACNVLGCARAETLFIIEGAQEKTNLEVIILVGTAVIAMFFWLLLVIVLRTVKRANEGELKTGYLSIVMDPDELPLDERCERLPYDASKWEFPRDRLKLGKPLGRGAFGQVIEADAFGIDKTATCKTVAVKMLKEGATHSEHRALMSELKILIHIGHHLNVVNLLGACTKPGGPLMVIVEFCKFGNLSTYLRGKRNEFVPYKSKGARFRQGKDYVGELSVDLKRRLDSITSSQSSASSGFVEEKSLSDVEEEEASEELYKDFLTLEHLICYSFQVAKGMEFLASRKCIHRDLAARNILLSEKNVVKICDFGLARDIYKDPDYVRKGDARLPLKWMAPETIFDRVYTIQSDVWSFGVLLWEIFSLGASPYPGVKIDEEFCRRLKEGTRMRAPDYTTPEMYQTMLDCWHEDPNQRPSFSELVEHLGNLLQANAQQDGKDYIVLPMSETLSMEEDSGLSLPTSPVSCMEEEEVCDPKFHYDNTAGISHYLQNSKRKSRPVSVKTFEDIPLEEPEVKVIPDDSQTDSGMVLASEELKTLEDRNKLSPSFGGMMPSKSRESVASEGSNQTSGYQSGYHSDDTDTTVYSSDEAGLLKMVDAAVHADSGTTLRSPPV
Description: as §1, §2, §3

Fgfr4 = target: T5, Fgfr4 (Mus musculus, UniProt Q03142); assay: Kinase inhibitor profiling, pEY phosphorylation; format: biochemical
T5 construct: specificity data for proteins generated from a library of eighteen full-length clones; biotin on random lysines (biotin-Lys-tRNA); host or cells: rabbit reticulocyte lysate, coupled transcription/translation (TnT, Promega)
T5 sequence (Q03142 17-799): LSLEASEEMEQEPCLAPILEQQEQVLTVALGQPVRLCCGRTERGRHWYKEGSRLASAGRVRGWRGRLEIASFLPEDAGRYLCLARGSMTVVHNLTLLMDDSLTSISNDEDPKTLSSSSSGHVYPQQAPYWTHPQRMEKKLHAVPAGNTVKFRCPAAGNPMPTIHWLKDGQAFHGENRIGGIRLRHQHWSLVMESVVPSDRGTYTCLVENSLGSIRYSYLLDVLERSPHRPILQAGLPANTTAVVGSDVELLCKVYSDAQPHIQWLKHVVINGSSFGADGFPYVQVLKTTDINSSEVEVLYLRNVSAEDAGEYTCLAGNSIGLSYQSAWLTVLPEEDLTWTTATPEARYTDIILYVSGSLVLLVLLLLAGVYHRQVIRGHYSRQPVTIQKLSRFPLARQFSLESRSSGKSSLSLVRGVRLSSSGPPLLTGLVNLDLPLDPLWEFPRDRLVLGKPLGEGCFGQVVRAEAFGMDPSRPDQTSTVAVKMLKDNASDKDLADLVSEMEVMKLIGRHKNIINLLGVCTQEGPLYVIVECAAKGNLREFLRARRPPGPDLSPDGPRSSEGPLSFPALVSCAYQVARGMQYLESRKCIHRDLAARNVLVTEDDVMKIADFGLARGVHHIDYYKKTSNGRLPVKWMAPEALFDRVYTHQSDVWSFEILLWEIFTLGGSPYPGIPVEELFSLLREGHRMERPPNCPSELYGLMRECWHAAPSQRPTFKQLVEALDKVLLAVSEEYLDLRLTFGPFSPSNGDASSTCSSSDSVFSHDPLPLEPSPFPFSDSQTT
Description: as §1, §4, §5

Compound | Inhibition specificity towards pEY phosphorylation at 10X IC50, BTK (BTK) | IC50 [1] [nM] | Inhibition specificity towards pEY phosphorylation at 10X IC50, Kit (Kit) | Inhibition specificity towards pEY phosphorylation at 10X IC50, EphB4 (EphB4) | Inhibition specificity towards pEY phosphorylation at 10X IC50, Kdr (Kdr) | Inhibition specificity towards pEY phosphorylation at 10X IC50, Fgfr4 (Fgfr4)
CC(C)(C)c1cc(/C=C(\C#N)C(N)=S)cc(C(C)(C)C)c1O [AG879] | L (low inhibition (“L”=between 50–75% of the activity remaining)) | 10000 | – | – | – | –
CC(C)(C)c1cc(C=C(C#N)C#N)cc(C(C)(C)C)c1O [AG-17] | – | 500 | L (low inhibition (“L”=between 50–75% of the activity remaining)) | – | – | –
N#C/C(=C/c1ccc(O)c(O)c1)C(=O)NCc1ccccc1 [AG-490] | L (low inhibition (“L”=between 50–75% of the activity remaining)) | 100 | – | – | – | –
COc1cc2ncc(-c3ccccc3)nc2cc1OC [AG-1296] | – | 1000 | M (medium inhibition (“M”=between 25 to 50% of the activity remaining)) | L (low inhibition (“L”=between 50–75% of the activity remaining)) | – | –
O=c1c(-c2ccc(O)cc2)coc2cc(O)cc(O)c12 [Genistein] | – | – | M (medium inhibition (“M”=between 25 to 50% of the activity remaining)) | L (low inhibition (“L”=between 50–75% of the activity remaining)) | – | –
C/C(O)=C(\C#N)C(=O)Nc1cc(Br)ccc1Br [LFM-A13] | – | 17200 | M (medium inhibition (“M”=between 25 to 50% of the activity remaining)) | – | L (low inhibition (“L”=between 50–75% of the activity remaining)) | M (medium inhibition (“M”=between 25 to 50% of the activity remaining))
O=C(O)c1cc(N(Cc2ccccc2O)Cc2cc(O)ccc2O)ccc1O [Lavendustin A] | – | 11 | L (low inhibition (“L”=between 50–75% of the activity remaining)) | – | – | –
